Reference: patent publication US20260144788A1, “COMPOUND FOR SHP2 PROTEIN DEGRADATION AND MEDICAL USES THEREOF” (UBIX THERAPEUTICS, INC., priority 2022, published 2026)

Target: T1, SHP2 protein (Homo sapiens, UniProt Q06124)
T1 sequence (Q06124 1-593): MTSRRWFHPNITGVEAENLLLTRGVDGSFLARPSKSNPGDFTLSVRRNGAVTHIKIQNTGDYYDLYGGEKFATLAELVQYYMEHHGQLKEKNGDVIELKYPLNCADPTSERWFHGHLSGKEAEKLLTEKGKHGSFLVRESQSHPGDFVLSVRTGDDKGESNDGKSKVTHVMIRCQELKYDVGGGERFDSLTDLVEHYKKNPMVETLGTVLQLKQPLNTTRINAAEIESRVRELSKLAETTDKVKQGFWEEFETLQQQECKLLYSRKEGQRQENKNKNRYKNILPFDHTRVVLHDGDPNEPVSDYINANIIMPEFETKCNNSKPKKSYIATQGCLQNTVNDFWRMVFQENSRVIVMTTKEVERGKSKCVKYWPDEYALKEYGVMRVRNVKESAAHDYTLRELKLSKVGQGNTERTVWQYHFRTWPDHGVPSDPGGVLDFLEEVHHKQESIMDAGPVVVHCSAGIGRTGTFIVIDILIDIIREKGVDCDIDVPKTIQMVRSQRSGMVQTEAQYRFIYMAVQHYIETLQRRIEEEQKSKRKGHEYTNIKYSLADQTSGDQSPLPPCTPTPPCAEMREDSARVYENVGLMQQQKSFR
Test: Measurement of SHP2 protein degradation in NCI-H358 cells (western blotting)
Assay type: cell-based
Parameters: endogenous in cells; host or cells: NCI-H358
Settings: harvested after 24 hours
Procedure: H358 cells were treated with the synthesized Example compounds, and the amount of SHP2 protein present in the cells was measured using western blotting detection. The protocol for the experiment using H358 cells is as follows.
[Culture]H358 cells were resuspended in RPMI1640 with 25 mM HEPES (Hyclone, SH30255.01), 10% FBS (Hyclone, SV30207.02), 1% Penicillin-streptomycin (Welgene, LS 202-02) media, seeded at 3×10^5/mL in 12-well plates (1 mL each), and cultured for 24 hours.
[Compound treatment] Before compound treatment, the media was changed to 1 mL media, and then the 12-well plate was treated as follows. The 10 mM stock dissolved in DMSO was serially diluted 1/100 or 1/10 with the media, and the compound was treated to the cells at a final concentration of 0.001, 0.01, and 0.1 μM, and harvested after 24 hours. For the negative control group, DMSO diluted 1/1000 in the media was added (1 μL DMSO+999 μL media).
[Harvest]24 hours after compound treatment, each well was scraped with a cell lifter (SPL, 90040), pipetted with a 1 mL pipette, collected in a 1.5 mL microtube, and centrifuged (500 g, 5 min, 4° C.). The supernatant was removed, washed with PBS, and centrifuged again (500 g, 5 min, 4° C.). Afterwards, the supernatant was removed to prepare a pellet.
[Cell lysis and sample preparation] Lysis buffer was prepared as follows. RIPA buffer (Biosesang, RC2038-050-00)+0.5 mM PMSF (SIGMA, P7626)+1× Protease/Phosphatase Inhibitor (Cell signaling, 5872S) were added at 30 μL per tube, vortexed, and incubated on ice for 30 minutes. Afterwards, sonication was performed (10 sec pulse, 30 sec rest, 5 cycles, 70% amplification) and centrifugation was performed (15,000 g, 15 min, 4° C.), and only the supernatant was transferred to a microtube. A 96-well plate was diluted to 1/4 with 7.5 μL of RIPA buffer and 2.5 μL of sample, and 200 μL each was added after mixing A and B of the BCA Protein Assay Kit (iNtRON, 21071) in a ratio of 50:1. The plate was incubated at 37° C. for 30 minutes and left at room temperature for 10 minutes. After shaking for 10 seconds with a SYNERGY H1 microplate reader from BioTek, the absorbance was measured at 562 nm. The protein was quantified using the measured value to make a sample, which was then incubated at 70° C. for 10 minutes. The sample buffer used here was a mixture of NuPAGE or Bolt 4× sample buffer (Invitrogen) and each 10× sample reducing agent depending on the gel to be used, and RIPA buffer was used for protein dilution.
[Western blotting detection] Equal amounts of samples were loaded onto NuPAGE or Bolt Bis-tris 4-12% gradient gel and run (200 V, 35 min). This was transferred to […] NC membrane using Trans-blot Turbo (BIO-RAD) (1.3 A constant, 25 V limit, 15 min), and blocked with 5% skim milk/0.2% TBST for 45 min at room temperature. Anti-SHPTP2 Mouse (1:1,000 in 5% skim milk/0.2% TBST, size: 70 kDa, Santa cruz sc-7384) and Anti-GAPDH Rabbit (1:2,000 in 5% skim milk or 5% BSA/0.2% TBST, size: 37 kDa, CST #2118) were added and incubated overnight at 4° C. After washing three times with 0.2% TBST washing buffer for 5 minutes each, secondary antibodies Anti-Mouse IgG (1:5,000 in 5% skim milk/0.2% TBST, CST) and IRDye® 680RD Goat anti-Rabbit IgG Secondary Antibody (1:10,000 in 5% skim milk/0.2% TBST, LI-COR 926-68071) were added, and incubated on a rocker at room temperature for 45 minutes. The resultants were washed five times with 0.2% TBST washing buffer for 5 minutes each, and detected using LI-COR's Odyssey. GAPDH was detected with a 700 nm channel, and SHPTP2 was detected using SuperSignal West Pico PLUS Chemiluminescent Substrate.

Row | Structure (SMILES) | SHP2% degradation (0.01 μM) [%] | SHP2% degradation (0.1 μM) [%]
1 | CC(=O)N[C@H](C(=O)N1C[C@H](O)C[C@H]1C(=O)NCc1ccc(-c2scnc2C)cc1O[C@H]1CC[C@H](C(=O)N2CCC(n3cc(F)c4c(Sc5cnc(N6CCC(C)(CN)CC6)cn5)cccc43)CC2)CC1)C(C)(C)C [Example 37, (2S,4R)-1-((S)-2-acetamido-3,3-dimethylbutanoyl)-N-(2-(((1r,4S)-4-(4-(4-((5-(4-(aminomethyl)-4-methylpiperidin-1-yl)pyrazin-2-yl)thio)-3-fluoro-1H-indol-1-yl)piperidine-1-carbonyl)cyclohexyl)oxy)-4-(4-methylthiazol-5-yl)benzyl)-4-hydroxypyrrolidine-2-carboxamide] | 75.8 | 99.
2 | CC(=O)N[C@H](C(=O)N1C[C@H](O)C[C@H]1C(=O)NCc1ccc(-c2scnc2C)cc1O[C@H]1CC[C@H](C(=O)N2CC(Nc3nccc(Sc4cnc(N5CCC(C)(N)CC5)cn4)c3Cl)C2)CC1)C(C)(C)C [Example 39, (2S,4R)-1-((S)-2-acetamido-3,3-dimethylbutanoyl)-N-(2-(((1R,4S)-4-(3-((4-((5-(4-amino-4-methylpiperidin-1-yl)pyrazin-2-yl)thio)-3-chloropyridin-2-yl)amino)azetidine-1-carbonyl)cyclohexyl)oxy)-4-(4-methylthiazol-5-yl)benzyl)-4-hydroxypyrrolidine-2-carboxamide] | 83.6 | 98.1
3 | CC(=O)N[C@H](C(=O)N1C[C@H](O)C[C@H]1C(=O)NCc1ccc(-c2scnc2C)cc1O[C@H]1CC[C@H](C(=O)N2CC(Nc3nccc(Sc4cnc(N5CCC6(CC5)CO[C@@H](C)[C@H]6N)cn4)c3Cl)C2)CC1)C(C)(C)C [Example 40, (2S,4R)-1-((S)-2-acetamido-3,3-dimethylbutanoyl)-N-(2-(((1R,4S)-4-(3-((4-((5-((3S,4S)-4-amino-3-methyl-2-oxa-8-azaspiro[4.5]decan-8-yl)pyrazin-2-yl)thio)-3-chloropyridin-2-yl)amino)azetidine-1-carbonyl)cyclohexyl)oxy)-4-(4-methylthiazol-5-yl)benzyl)-4-hydroxypyrrolidine-2-carboxamide] | 94.2 | 95.9
4 | CC(=O)N[C@H](C(=O)N1C[C@H](O)C[C@H]1C(=O)NCc1ccc(-c2scnc2C)cc1O[C@H]1CC[C@H](C(=O)N2CCC(Nc3nccc(Sc4cnc(N5CCC(C)(N)CC5)cn4)c3Cl)CC2)CC1)C(C)(C)C [Example 42, (2S,4R)-1-((S)-2-acetamido-3,3-dimethylbutanoyl)-N-(2-(((1R,4S)-4-(4-((4-((5-(4-amino-4-methylpiperidin-1-yl)pyrazin-2-yl)thio)-3-chloropyridin-2-yl)amino)piperidine-1-carbonyl)cyclohexyl)oxy)-4-(4-methylthiazol-5-yl)benzyl)-4-hydroxypyrrolidine-2-carboxamide] | 95.2 | 98.7
5 | CC(=O)N[C@H](C(=O)N1C[C@H](O)C[C@H]1C(=O)NCc1ccc(-c2scnc2C)cc1O[C@H]1CC[C@H](C(=O)N2CCC(Nc3nccc(Sc4cnc(N5CCC6(CC5)CO[C@@H](C)[C@H]6N)cn4)c3Cl)CC2)CC1)C(C)(C)C [Example 43, (2S,4R)-1-((S)-2-acetamido-3,3-dimethylbutanoyl)-N-(2-(((1R,4S)-4-(4-((4-((5-((3S,4S)-4-amino-3-methyl-2-oxa-8-azaspiro[4.5]decan-8-yl)pyrazin-2-yl)thio)-3-chloropyridin-2-yl)amino)piperidine-1-carbonyl)cyclohexyl)oxy)-4-(4-methylthiazol-5-yl)benzyl)-4-hydroxypyrrolidine-2-carboxamide] | 94.3 | 95.9
6 | CC(=O)N[C@H](C(=O)N1C[C@H](O)C[C@H]1C(=O)NCc1ccc(-c2scnc2C)cc1O[C@H]1CC[C@H](C(=O)N2CC(Nc3nccc(Sc4cnc(N5CCC(C)(CN)CC5)c(CO)n4)c3Cl)C2)CC1)C(C)(C)C [Example 44, (2S,4R)-1-((S)-2-acetamido-3,3-dimethylbutanoyl)-N-(2-(((1r,4S)-4-(3-((4-((5-(4-(aminomethyl)-4-methylpiperidin-1-yl)-6-(hydroxymethyl)pyrazin-2-yl)thio)-3-chloropyridin-2-yl)amino)azetidine-1-carbonyl)cyclohexyl)oxy)-4-(4-methylthiazol-5-yl)benzyl)-4-hydroxypyrrolidine-2-carboxamide] | 88.5 | 99.1

More lines, now with the values ahead:

Row | SHP2% degradation (0.01 μM) [%] | SHP2% degradation (0.1 μM) [%] | Structure (SMILES)
7 | −36.9 | 73.0 | CC(=O)N[C@H](C(=O)N1C[C@H](O)C[C@H]1C(=O)NCc1ccc(-c2scnc2C)cc1O[C@H]1CC[C@H](C(=O)N2CC(N3CCOc4c(Sc5cnc(N6CCC(C)(CN)CC6)cn5)cccc43)C2)CC1)C(C)(C)C [Example 34, (2S,4R)-1-((S)-2-acetamido-3,3-dimethylbutanoyl)-N-(2-(((1R,4S)-4-(3-(8-((5-(4-(aminomethyl)-4-methylpiperidin-1-yl)pyrazin-2-yl)thio)-2,3-dihydro-4H-benzo[b][1,4]oxazin-4-yl)azetidine-1-carbonyl)cyclohexyl)oxy)-4-(4-methylthiazol-5-yl)benzyl)-4-hydroxypyrrolidine-2-carboxamide]
8 | 66.8 | 97.7 | CC(=O)N[C@H](C(=O)N1C[C@H](O)C[C@H]1C(=O)NCc1ccc(-c2scnc2C)cc1O[C@H]1CC[C@H](C(=O)N2CCC(N3CCOc4c(Sc5cnc(N6CCC(C)(CN)CC6)cn5)cccc43)CC2)CC1)C(C)(C)C [Example 35, (2S,4R)-1-((S)-2-acetamido-3,3-dimethylbutanoyl)-N-(2-(((1r,4S)-4-(4-(8-((5-(4-(aminomethyl)-4-methylpiperidin-1-yl)pyrazin-2-yl)thio)-2,3-dihydro-4H-benzo[b][1,4]oxazin-4-yl)piperidine-1-carbonyl)cyclohexyl)oxy)-4-(4-methylthiazol-5-yl)benzyl)-4-hydroxypyrrolidine-2-carboxamide]
9 | 91.0 | 100.0 | CC(=O)N[C@H](C(=O)N1C[C@H](O)C[C@H]1C(=O)NCc1ccc(-c2scnc2C)cc1O[C@H]1CC[C@H](C(=O)N2CCC(N3CCOc4c(Sc5cnc(N6CCC7(CC6)CO[C@@H](C)[C@H]7N)cn5)cccc43)CC2)CC1)C(C)(C)C [Example 36, (2S,4R)-1-((S)-2-acetamido-3,3-dimethylbutanoyl)-N-(2-(((1R,4S)-4-(4-(8-((5-((3S,4S)-4-amino-3-methyl-2-oxa-8-azaspiro[4.5]decan-8-yl)pyrazin-2-yl)thio)-2H-benzo[b][1,4]oxazin-4(3H)-yl)piperidine-1-carbonyl)cyclohexyl)oxy)-4-(4-methylthiazol-5-yl)benzyl)-4-hydroxypyrrolidine-2-carboxamide]
